Here are results for 20 compounds from US20220016115A1, “USP19 INHIBITORS FOR USE IN THERAPY” (ALMAC DISCOVERY LIMITED, priority 2018, published 2022).

In this test the target is T1, USP19 (Homo sapiens, UniProt O94966).
T1 sequence (O94966 1-1318): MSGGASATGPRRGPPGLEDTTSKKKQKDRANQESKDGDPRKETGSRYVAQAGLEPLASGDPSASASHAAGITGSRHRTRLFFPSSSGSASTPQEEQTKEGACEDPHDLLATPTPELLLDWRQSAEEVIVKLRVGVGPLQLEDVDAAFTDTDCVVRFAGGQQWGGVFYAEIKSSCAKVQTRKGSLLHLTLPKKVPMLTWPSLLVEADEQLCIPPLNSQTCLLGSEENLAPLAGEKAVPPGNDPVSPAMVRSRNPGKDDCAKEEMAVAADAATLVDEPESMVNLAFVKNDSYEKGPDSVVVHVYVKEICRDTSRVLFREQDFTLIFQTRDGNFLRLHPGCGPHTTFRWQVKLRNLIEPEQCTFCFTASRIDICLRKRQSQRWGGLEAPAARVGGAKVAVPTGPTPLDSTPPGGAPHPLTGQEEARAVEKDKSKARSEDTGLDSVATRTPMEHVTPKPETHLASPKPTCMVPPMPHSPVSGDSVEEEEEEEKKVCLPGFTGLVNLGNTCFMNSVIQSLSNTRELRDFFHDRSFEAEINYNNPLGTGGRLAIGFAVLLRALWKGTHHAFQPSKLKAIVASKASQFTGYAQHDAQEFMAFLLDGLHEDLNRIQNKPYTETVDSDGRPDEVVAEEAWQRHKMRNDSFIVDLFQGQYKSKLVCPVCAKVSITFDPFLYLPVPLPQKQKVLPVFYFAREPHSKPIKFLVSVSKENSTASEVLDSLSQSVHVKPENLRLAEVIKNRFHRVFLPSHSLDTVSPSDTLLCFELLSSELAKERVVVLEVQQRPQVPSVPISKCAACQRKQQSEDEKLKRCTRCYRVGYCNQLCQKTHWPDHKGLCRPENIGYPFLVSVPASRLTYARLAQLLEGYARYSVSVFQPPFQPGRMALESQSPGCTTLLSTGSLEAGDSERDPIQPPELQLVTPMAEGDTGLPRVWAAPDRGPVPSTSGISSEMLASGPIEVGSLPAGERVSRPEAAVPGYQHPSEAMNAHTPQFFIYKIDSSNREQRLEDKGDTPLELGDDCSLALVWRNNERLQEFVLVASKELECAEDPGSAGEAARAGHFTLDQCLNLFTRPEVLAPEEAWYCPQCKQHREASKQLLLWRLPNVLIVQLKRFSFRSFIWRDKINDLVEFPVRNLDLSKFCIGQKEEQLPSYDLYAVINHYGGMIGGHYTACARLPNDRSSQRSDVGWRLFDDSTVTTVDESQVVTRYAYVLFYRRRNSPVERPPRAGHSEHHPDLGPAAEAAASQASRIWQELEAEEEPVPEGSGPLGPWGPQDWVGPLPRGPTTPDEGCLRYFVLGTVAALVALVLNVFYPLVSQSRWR
Nature of the test: USP19 fluorescence polarisation (FP) homogeneous assay. Format: biochemical. Also on record: Full-length USP19 was purchased from Boston Biochem (E-576); purchased Boston Biochem E-576. As to conditions: Ubiquitin-Lys-TAMRA substrate, full-length USP19 2.5 nM, average of at least two duplicate experiments. An outline of the steps:
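Inhibitors serially diluted in buffer (200 μM to 2 μM, 8-18 points) and preincubated 30 min at RT before starting with 500 nM Ub substrate.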
A general note: Polarisation of emitted light reports the rotation of a fluorescent probe.

As usually defined, the IC50 is the concentration that gives 50% inhibition. Turning to `CC(C)N(C)C(=O)c1cn(C[C@]2(O)CCN(C(=O)[C@H](C)CC3CCCCC3)CC2(C)C)c(=O)cc1-c1ccccc1` [Example 120, 1-(((S)-1-((R)-3-Cyclohexyl-2-methylpropanoyl)-4-hydroxy-3,3-dimethylpiperidin-4-yl)methyl)-N-isopropyl-N-methyl-6-oxo-4-phenyl-1,6-dihydropyridine-3-carboxamide], the IC50 was less than 500 nM. As for `C[C@H](CC(F)(F)F)C(=O)N1CC[C@@](O)(Cn2cc(C(=O)N3CCNCC3)c(-c3ccccc3)cc2=O)C2(CCCC2)C1` [Example 217, 1-(((S)-10-Hydroxy-7-((R)-4,4,4-trifluoro-2-methylbutanoyl)-7-azaspiro[4.5]decan-10-yl)methyl)-4-phenyl-5-(piperazine-1-carbonyl)pyridin-2(1H)-one], the figure is less than 500 nM; as for `C[C@H](CC1CCC1)C(=O)N1CC[C@@](O)(Cn2cc(C(=O)N(C)C)c(-c3ccccc3)cc2=O)C2(CCCC2)C1` [Example 214, 1-(((S)-7-((R)-3-Cyclobutyl-2-methylpropanoyl)-10-hydroxy-7-azaspiro[4.5]decan-10-yl)methyl)-N,N-dimethyl-6-oxo-4-phenyl-1,6-dihydropyridine-3-carboxamide], less than 500 nM. Next, `C[C@H](CC1CCCCC1)C(=O)N1CCC(O)(Cn2cnc(-c3cccc(CO)c3)cc2=O)C(C)(C)C1` (some centres unmarked) [Example 138]: less than 500 nM. With `C[C@H](CC1CCCCC1)C(=O)N1CCC(O)(Cn2cnc(-c3ccccc3F)cc2=O)C2(CCCC2)C1` (stereo partly drawn) [Example 119, 3-((7-((R)-3-Cyclohexyl-2-methylpropanoyl)-10-hydroxy-7-azaspiro[4.5]decan-10-yl)methyl)-6-(2-fluorophenyl)pyrimidin-4(3H)-one], the IC50 is less than 500 nM.

For `C[C@H](CC(=O)N1CCC(O)(Cn2cnc(-c3ccccc3)cc2=O)CC1(C)C)c1ccccc1` (mixture of isomers) [Example 61, 3-(((R)-4-Hydroxy-2,2-dimethyl-1-((R)-3-phenylbutanoyl)piperidin-4-yl)methyl)-6-phenylpyrimidin-4(3H)-one and 3-(((S)-4-Hydroxy-2,2-dimethyl-1-((R)-3-phenylbutanoyl)piperidin-4-yl)methyl)-6-phenylpyrimidin-4(3H)-one], the IC50 is 50000 to 250000 nM.

On to `CN(C)C(=O)c1cn(CC2(O)CCN(C(=O)C(O)CC3CCCCC3)CC23CCCC3)c(=O)cc1-c1ccccc1` (centres unmarked) [Example 157, 1-((7-(3-Cyclohexyl-2-hydroxypropanoyl)-10-hydroxy-7-azaspiro[4.5]decan-10-yl)methyl)-N,N-dimethyl-6-oxo-4-phenyl-1,6-dihydropyridine-3-carboxamide], for which the IC50 was less than 500 nM. As for `C[C@H](CC(F)(F)F)C(=O)N1CC[C@@](O)(Cn2cnc(-c3ccccc3)cc2=O)C2(CCCC2)C1` [Example 255, 3-(((S)-10-Hydroxy-7-((R)-4,4,4-trifluoro-2-methylbutanoyl)-7-azaspiro[4.5]decan-10-yl)methyl)-6-phenylpyrimidin-4(3H)-one], the figure is less than 500 nM; as for `C[C@H](CC1CCCCC1)C(=O)N1CCC(O)(Cn2cc(C(=O)N3CCNCC3)c(-c3ccccc3)cc2=O)C2(CCCCC2)C1` (stereo partly drawn) [Example 238, 1-((2-((R)-3-Cyclohexyl-2-methylpropanoyl)-5-hydroxy-2-azaspiro[5.5]undecan-5-yl)methyl)-4-phenyl-5-(piperazine-1-carbonyl)pyridin-2(1H)-one], less than 500 nM; as for `O=C([C@@H]1CNC[C@H]1c1ccccc1)N1CC[C@@](O)(Cn2cnc(-c3ccccc3)cc2=O)C2(CCCC2)C1` (mixture of isomers) [Example 259, 3-(((S)-10-Hydroxy-7-((3S,4R)-4-phenylpyrrolidine-3-carbonyl)-7-azaspiro[4.5]decan-10-yl)methyl)-6-phenylpyrimidin-4(3H)-one and 3-(((S)-10-Hydroxy-7-((3R,4S)-4-phenylpyrrolidine-3-carbonyl)-7-azaspiro[4.5]decan-10-yl)methyl)-6-phenylpyrimidin-4(3H)-one], less than 500 nM. Next, `C[C@H](CC1CCCCC1)C(=O)N1CC[C@@](O)(Cn2cc(C(=O)N3CCNCC3)c(-c3ccccc3F)cc2=O)C2(CCCC2)C1` [Example 227, 1-(((S)-7-((R)-3-Cyclohexyl-2-methylpropanoyl)-10-hydroxy-7-azaspiro[4.5]decan-10-yl)methyl)-4-(2-fluorophenyl)-5-(piperazine-1-carbonyl)pyridin-2(1 H)-one]: less than 500 nM; `CN(C)C(=O)c1cn(C[C@]2(O)CCN(C(=O)[C@H](CO)CC(F)(F)F)CC23CCCC3)c(=O)cc1-c1ccccc1` [Example 247, 1-(((S)-10-Hydroxy-7-((S)-4,4,4-trifluoro-2-(hydroxymethyl)butanoyl)-7-azaspiro[4.5]decan-10-yl)methyl)-N,N-dimethyl-6-oxo-4-phenyl-1,6-dihydropyridine-3-carboxamide]: less than 500 nM. In the case of `C[C@H](CC(F)(F)F)C(=O)N1CC[C@@](O)(Cn2cc(C(=O)N3CCOCC3)c(-c3ccccc3)cc2=O)C2(CCCC2)C1` [Example 250, 1-(((S)-10-Hydroxy-7-((R)-4,4,4-trifluoro-2-methylbutanoyl)-7-azaspiro[4.5]decan-10-yl)methyl)-5-(morpholine-4-carbonyl)-4-phenylpyridin-2(1H)-one], the IC50 is less than 500 nM. With `C[C@H](CC(F)(F)F)C(=O)N1CC[C@@](O)(Cn2cnc(-c3ccccc3F)cc2=O)C2(CCCC2)C1` [Example 256, 6-(2-Fluorophenyl)-3-(((S)-10-hydroxy-7-((R)-4,4,4-trifluoro-2-methylbutanoyl)-7-azaspiro[4.5]decan-10-yl)methyl)pyrimidin-4(3H)-one], the IC50 was less than 500 nM. In the case of `C[C@H](CC1CCCCC1)C(=O)N1CC[C@@](O)(Cn2cc(C(=O)N3CCNCC3)c(-c3ccccc3)cc2=O)C(C)(C)C1` [Example 124, 1-(((S)-1-((R)-3-Cyclohexyl-2-methylpropanoyl)-4-hydroxy-3,3-dimethylpiperidin-4-yl)methyl)-4-phenyl-5-(piperazine-1-carbonyl)pyridin-2(1H)-one], the IC50 was less than 500 nM. For the compound `O=C(c1cn(C[C@]2(O)CCN(C(=O)[C@H](CO)CC(F)(F)F)CC23CCCC3)c(=O)cc1-c1ccccc1)N1CCOCC1` [Example 248, 1-(((S)-10-Hydroxy-7-((S)-4,4,4-trifluoro-2-(hydroxymethyl)butanoyl)-7-azaspiro[4.5]decan-10-yl)methyl)-5-(morpholine-4-carbonyl)-4-phenylpyridin-2(1H)-one], the IC50 was less than 500 nM. As to `C[C@H](CC1CCCCC1)C(=O)N1CC[C@@](O)(Cn2cc(C(=O)N3CCOCC3)c(-c3ccccc3)cc2=O)C2(CCCC2)C1` [Example 239, 1-(((S)-7-((R)-3-Cyclohexyl-2-methylpropanoyl)-10-hydroxy-7-azaspiro[4.5]decan-10-yl)methyl)-5-(morpholine-4-carbonyl)-4-phenylpyridin-2(1H)-one], the IC50 was less than 500 nM. On to `C[C@H](CC1CCCCC1)C(=O)N1CCC(O)(Cn2cc(C(=O)N3CCOCC3)c(-c3ccccc3)cc2=O)C(C)(C)C1` (some centres unmarked) [Example 168], for which the IC50 is less than 500 nM. Turning to `C[C@H](CC1CCCCC1)C(=O)N1CC[C@@](O)(Cn2cc(C(=O)N3CCC(O)CC3)c(-c3ccccc3)cc2=O)C(C)(C)C1` [Example 228, 1-(((S)-1-((R)-3-Cyclohexyl-2-methylpropanoyl)-4-hydroxy-3,3-dimethylpiperidin-4-yl)methyl)-5-(4-hydroxypiperidine-1-carbonyl)-4-phenylpyridin-2(1 H)-one], the IC50 is less than 500 nM. As for `CN(C)C(=O)c1cn(C[C@@]2(O)CCN(C(=O)[C@H](CO)CC3CCC3)CC2(C)C)c(=O)cc1-c1ccccc1` [Example 167, 1-(((R)-1-((S)-3-Cyclobutyl-2-(hydroxymethyl)propanoyl)-4-hydroxy-3,3-dimethylpiperidin-4-yl)methyl)-N,N-dimethyl-6-oxo-4-phenyl-1,6-dihydropyridine-3-carboxamide], the figure is 5000 to 50000 nM.
